Assay results: paper PMC6036174 (Frontiers in Microbiology, 2018)
Where two headings read alike, the source gives them in different places.

Key:
[1] = system: A549 lung epithelial cells; assay: A549 cell cytotoxicity (MTT); conditions: 48 h incubation, MTT, called CC50 in methods; for IC50: read-out: Cytotoxicity IC50 A549 cells
[2] = system: VERO (ATCC CCL-81) normal epithelial cells; assay: VERO cell cytotoxicity (resazurin); conditions: 24 h incubation, called CC50 in methods; for IC50: read-out: Cytotoxicity IC50 VERO cells
M. tuberculosis H37Rv = conditions: cited from earlier work
G. mellonella larvae = assay: in vivo toxicity in Galleria mellonella larvae; conditions: for % Mortality: 72 h post-injection; for In vivo G. mellonella tolerance order in μmol / In vivo G. mellonella tolerance order in μmol (Normalized against no. of phens): rank; for In vivo G. mellonella tolerance order in μmol: 1st = best tolerated, from Table 2; for In vivo G. mellonella tolerance order in μmol (Normalized against no. of phens): normalized with respect to phen content
Procedure: G. mellonella larvae in the 6th developmental stage were used to determine the in vivo cytotoxicity of the test complexes (Kellett et al., [2011]; Desbois and Coote, [2012]; McCann et al., [2012]). Thirty healthy larvae, each weighing between 0.2 and 0.4 g and with no cuticle discolouration, were used for each experiment. Fresh solutions of the test complexes were prepared immediately prior to testing under sterile conditions. Test compounds (0.05 g) were dissolved in DMSO (1 mL) and added to sterile water (9 mL) to give a stock solution/suspension (5,000 μg/mL). Test solutions/suspensions were prepared from the corresponding stock solution using Millipore water only to dilute to the desired concentration and each compound was screened across the concentration range of 5,000–100 mg/L. Test solutions/suspensions (20 μL) were administered to the larvae by injection directly into the haemocoel through the last pro-leg. The base of the pro-leg can be opened by applying gentle pressure to the sides of the larvae and this aperture will re-seal after removal of the syringe without leaving a scar. Larvae were placed in sterile Petri dishes and incubated at 30°C for 72 h. The survival of the larvae was monitored every 24 h. Death was assessed by the lack of movement in response to stimulus together with discolouration of the cuticle. Three controls were employed in all assays. The first consisted of untouched larvae maintained at the same temperature as the test larvae. The second was larvae with the pro-leg pierced with an inoculation needle but no solution injected. The third control was larvae that were inoculated with 20 μL of sterile water.

[3] = solubility in water (descriptive); format: physicochemical
M. tuberculosis CDC1551 = assay: broth tube MIC (visible pellet) against M. tuberculosis CDC1551; format: cell-based, Mycobacterium tuberculosis; conditions: for MIC100 / MIC / fold increase in potency compared to INH: M. tuberculosis CDC1551; for MIC100 / MIC: 14 days 37°C, no visible pellet; for MIC: read-out: MIC100
[4] = system: M. tuberculosis H37Rv (ATCC 27294); assay: resazurin microtiter assay, MIC against M. tuberculosis H37Rv; format: cell-based, Mycobacterium tuberculosis; conditions: 7 days 37°C, 90% inhibition of growth
[5] = M. tuberculosis H37Rv, ref Hoffman et al., [2013]
[6] = M. tuberculosis H37Rv, ref Oliveira et al., [2014]
[7] = H37Rv, ref Segura et al. ([2014])
[8] = 40 μg per larvae (133.33 mg/kg)
[9] = 100 μg per larvae (333.33 mg/kg)

| Compound | Cytotoxicity IC50 A549 cells [1] [µg/mL] | Cytotoxicity IC50 VERO cells [2] [µg/mL] | IC50 [1] [µM] | IC50 [2] [µM] | MIC (M. tuberculosis H37Rv; [5]) [µM] | MIC (M. tuberculosis H37Rv; [6]) [µM] | MIC (M. tuberculosis H37Rv; [7]) [µM] | % Mortality (G. mellonella larvae; 10 μg per larvae (33.33 mg/kg)) [%] | % Mortality (G. mellonella larvae; 20 μg per larvae (66.67 mg/kg)) [%] | % Mortality (G. mellonella larvae; [8]) [%] | % Mortality (G. mellonella larvae; [9]) [%] | In vivo G. mellonella tolerance order in μmol (G. mellonella larvae) | In vivo G. mellonella tolerance order in μmol (Normalized against no. of phens) (G. mellonella larvae) | solubility in water [3] | MIC100 (M. tuberculosis CDC1551) [µg/mL] | MIC (M. tuberculosis CDC1551) [µM] | MIC90 [4] [µg/mL] | MIC90 ([4]; read-out: MIC90) [µM] | fold increase in potency compared to INH (M. tuberculosis CDC1551) [fold] | fold increase in inhibitory activity against CDC1551 relative to H37Rv (M. tuberculosis CDC1551; MIC CDC1551 vs H37Rv) [fold] |
| --- | --- | --- | --- | --- | --- | --- | --- | --- | --- | --- | --- | --- | --- | --- | --- | --- | --- | --- | --- | --- |
| O.O.[Cl-].[Cl-].[Mn+2] [MnCl2·2H2O, reference compound] | 153.4 | 92.1 | – | – | – | – | – | – | – | – | – | – | – | – | – | – | – | – | – | – |
| [Cl-].[Cl-].[Mn+2] [MnCl2·2H2O, reference compound] | – | – | 947 | 569 | – | – | – | – | – | – | – | – | – | – | – | – | – | – | – | – |
| O=P([O-])(O)OP(=O)([O-])O.[Co+2].c1cnc2c(c1)ccc1cccnc12.c1cnc2c(c1)ccc1cccnc12 [[Co(phen)2(H2P2O7)]] | – | – | – | – | 2.05 | – | – | – | – | – | – | – | – | – | – | – | – | – | – | – |
| O.O=P([O-])(O)OP(=O)([O-])O.[Cu+2].c1cnc2c(c1)ccc1cccnc12 [[Cu(phen)(H2O)(H2P2O7)]] | – | – | – | – | 71.53 | – | – | – | – | – | – | – | – | – | – | – | – | – | – | – |
| CNC(=S)N/N=C(\C)c1ccccn1.CNC(=S)N/N=C(\C)c1ccccn1.[Mn+2] [[Mn(atc-Me)2]] | – | – | – | – | – | 50.69 | – | – | – | – | – | – | – | – | – | – | – | – | – | – |
| C/C(=N\NC(=S)Nc1ccccc1)c1ccccn1.C/C(=N\NC(=S)Nc1ccccc1)c1ccccn1.[Mn+2] [[Mn(atc-Ph)2]] | – | – | – | – | – | 1.31 | – | – | – | – | – | – | – | – | – | – | – | – | – | – |
| NC(N)=S.NC(N)=S.O=S(=O)([O-])C(F)(F)F.O=S(=O)([O-])C(F)(F)F.[Ag+].[Ag+].c1cnc2c(c1)ccc1cccnc12.c1cnc2c(c1)ccc1cccnc12 [[{Ag(phen)(μ-tu)}2]X2 (X = CF3 SO3-), [{Ag(phen)(μ-tu)}2]X2] | – | – | – | – | – | – | 14.2 | – | – | – | – | – | – | – | – | – | – | – | – | – |
| NC(N)=S.NC(N)=S.O=[N+]([O-])[O-].O=[N+]([O-])[O-].[Ag+].[Ag+].c1cnc2c(c1)ccc1cccnc12.c1cnc2c(c1)ccc1cccnc12 [[{Ag(phen)(μ-tu)}2]X2 (X = NO3-), [{Ag(phen)(μ-tu)}2]X2] | – | – | – | – | – | – | 11.0 | – | – | – | – | – | – | – | – | – | – | – | – | – |
| O.O.O=C([O-])c1ccccc1C(=O)[O-].[Mn+2].c1cnc2c(c1)ccc1cccnc12 [compound 5, [Mn(ph)(phen)(H2O)2]] | 234.51 | 15.6 | 539 | 35.8 | – | – | – | 0 | 80 | 90 | 90 | 6th | 6th | water-insoluble | < 0.19 | < 0.44 | 0.57 | 1.31 | – | – |
| O.O.O.O.O.O=C([O-])c1ccccc1C(=O)[O-].[Mn+2].c1cnc2c(c1)ccc1cccnc12.c1cnc2c(c1)ccc1cccnc12 [compound 6, [Mn(ph)(phen)2(H2O)]·4H2O] | 259.34 | 11.7 | 387 | 17.5 | – | – | – | 0 | 80 | 90 | 90 | 7th | 5th | water-insoluble | 0.38 | 0.57 | 1.42 | 2.12 | – | – |
| O.O.O.O.O=C([O-])c1cccc(C(=O)[O-])c1.O=C([O-])c1cccc(C(=O)[O-])c1.[Mn+2].[Mn+2].c1cnc2c(c1)ccc1cccnc12.c1cnc2c(c1)ccc1cccnc12.c1cnc2c(c1)ccc1cccnc12 [compound 7, [Mn2(isoph)2(phen)3]·4H2O] | 255.87 | 125 | 244 | 119 | – | – | – | 0 | 60 | 80 | 90 | 4th | 3rd | water-insoluble | – | – | 1.56 | 1.48 | – | – |
| O.O.O.O.O.O.O.O.O.O.O.O.O.O.O.O.O=C([O-])c1cccc(C(=O)[O-])c1.O=C([O-])c1cccc(C(=O)[O-])c1.[Mn+2].[Mn+2].c1cnc2c(c1)ccc1cccnc12.c1cnc2c(c1)ccc1cccnc12.c1cnc2c(c1)ccc1cccnc12.c1cnc2c(c1)ccc1cccnc12.c1cnc2c(c1)ccc1cccnc12 [compound 8, {[Mn(phen)2(H2O)2]}2(isoph)2(phen)·12H2O] | 251.76 | 46.9 | 155 | 28.8 | – | – | – | 0 | 80 | 90 | 90 | 9th | 5th | water-insoluble | – | – | 3.01 | 1.85 | ~3 | – |
| O.O.O.O.O.O=C([O-])c1ccc(C(=O)[O-])cc1.[Mn+2].c1cnc2c(c1)ccc1cccnc12.c1cnc2c(c1)ccc1cccnc12 [compound 9, [Mn(tereph)(phen)2]·5H2O] | 251.94 | 46.9 | 376 | 70 | – | – | – | 0 | 80 | 90 | 90 | 7th | 5th | water-insoluble | 0.38 | 0.57 | 3.41 | 5.09 | – | – |
| [Cu2(oda)(phen)4](ClO4)2·2.76H2O·EtOH [compound 2] | 0.98 | 11.7 | – | 8.94 | – | – | – | 0 | 50 | 90 | 90 | 3rd | 2nd | water-soluble | 1.50 | 1.15 | 16.60 | 12.68 | – | – |
| [Mn2(oda)(phen)4(H2O)2][Mn2(oda)(phen)4(oda)2]·4H2O [compound 1] | > 512 | 375 | > 208 | 153 | – | – | – | 0 | 40 | 90 | 90 | 1st | 1st | water-soluble | – | – | 1.15 | 0.47 | ~3 | 3 |
| {[Cu(3,6,9-tdda)(phen)2]·3H2O·EtOH}n [compound 4] | 1.06 | 5.85 | 1.42 | 7.86 | – | – | – | 0 | 80 | 90 | 90 | 8th | 6th | water-soluble | 0.75 | 1.01 | 10.03 | 13.48 | – | – |
| {[Mn(3,6,9-tdda)(phen)2]·3H2O·EtOH}n [compound 3] | 261.67 | 62.5 | 356 | 85 | – | – | – | 0 | 50 | 80 | 90 | 2nd | 2nd | water-soluble | 0.75 | 1.02 | 0.56 | 0.76 | – | – |
